Test results published in patent publication US10253081B2, “Glucagon analogues” (Zealand Pharma A/S, priority 2012, dated 2019).
*1 amine or outer side, *2 acyl side, *3 side chain or, on linkers, in order; H or OH if unused. Where a SMILES comes first, the peptide text is derived from it. Side-chain parts run from the residue outwards. [ ]: non-standard residue; d: D form. The star is where a group is joined. γGlu = O=C(O)[C@H](CCC(=O)[*:2])N[*:1]; Palmitoyl = CCCCCCCCCCCCCCCC(=O)*; Aib = CC(C)(N)C(=O)O

What was measured:
[1] = target: T1, human glucagon receptor (Glucagon-R) (Homo sapiens, UniProt P47871); test: Glucagon receptor efficacy assay (cAMP AlphaScreen, CHO cells); assay type: cell-based; conditions: Table 1A; CHO cells expressing human Glucagon-R, cAMP; read-out: EC50 hGCGR CHO-K1
T1 construct: expressed in transfected cells
Outline: (§1)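 Stably transfected CHO clones expressing human GLP-1R or glucagon receptor were treated with increasing peptide concentrations for 15 min at room temperature in KRBH containing 0.1 mM IBMX. After lysis, cAMP was quantified by AlphaScreen; EC50 and efficacy relative to GLP-1 or glucagon reference came from curve fitting.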

[2] = target: T2, human glucagon-like peptide 1 receptor (GLP-1R) (Homo sapiens, UniProt P43220); test: GLP-1 receptor efficacy assay (cAMP AlphaScreen, CHO cells); assay type: cell-based; conditions: Table 1A; for EC50: CHO cells expressing human GLP-1-R, cAMP, read-out: EC50 hGLP-1R CHO-K1; for Ratio GLP-1/Glucagon: EC50 [GLP-1R]/EC50 [Glucagon-R]
T2 construct: expressed in transfected cells
Outline: as §1

[3] = target: T3, endogenous GLP-1 receptors (Mus musculus, UniProt O35659); test: Agonistic activity on endogenous GLP-1 receptor (cAMP, murine insulinoma cell line); assay type: cell-based; conditions: intracellular cAMP, 15 minutes at 26° C.; read-out: EC50 GLP-1R (murine insulinoma cells)
T3 construct: Agonistic activity of the test compounds on endogenous GLP-1 receptors; endogenous in cells
T3 sequence (O35659 22-463): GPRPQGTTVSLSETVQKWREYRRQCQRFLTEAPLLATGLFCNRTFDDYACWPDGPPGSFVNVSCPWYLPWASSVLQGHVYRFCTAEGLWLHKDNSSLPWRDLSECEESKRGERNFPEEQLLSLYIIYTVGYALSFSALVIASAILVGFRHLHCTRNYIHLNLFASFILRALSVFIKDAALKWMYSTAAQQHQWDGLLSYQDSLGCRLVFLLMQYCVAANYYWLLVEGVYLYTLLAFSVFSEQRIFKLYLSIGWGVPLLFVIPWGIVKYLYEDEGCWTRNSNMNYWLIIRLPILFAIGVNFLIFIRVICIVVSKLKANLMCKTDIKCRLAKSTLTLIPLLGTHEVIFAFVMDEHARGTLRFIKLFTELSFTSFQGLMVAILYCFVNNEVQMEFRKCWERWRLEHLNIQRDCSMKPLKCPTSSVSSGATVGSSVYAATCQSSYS
Outline: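 Murine insulinoma cells were exposed 15 min at 26° C in KRBH with 0.1% DMSO to compound or GLP-1 ([…]), then cAMP was measured by AlphaScreen against a standard curve, in quadruplicate. pEC50 came from curve fits; % CTL was normalised to the maximal GLP-1 cAMP response.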

[4] = Oral glucose tolerance test (OGTT); assay type: in vivo, C57BL/6J mice; conditions: blood glucose AUC 0-120 min, 10 nmol/kg s.c. 4 h before oral glucose 2 g/kg
Method: Male C57BL/6J mice were fasted for 10 h before they received an oral glucose bolus of 2 g/kg body weight. Peptides were dissolved in saline buffered with 25 mM phosphate and administered at a dose of 10 nmol/kg body weight by subcutaneous injection 4 h before the glucose bolus. Control animals received a vehicle injection only. Group size was 7 animals per group. A pre-dose and a pre-glucose (0 min) blood sample were obtained by tail bleeding and blood glucose was measured with a glucometer. Additional samples of tail blood for measuring blood glucose were obtained 15 min, 30 min, 60 min, 90 min and 120 min after the glucose challenge. […] Calculation of AUC was done by the trapezoidal rule without baseline correction. The data are presented as mean±S.E.M. Statistical comparisons were conducted by one-way ANOVA followed by Tukey's post test. Vehicle alone was used as a control.

T1 sequence (P47871 26-477): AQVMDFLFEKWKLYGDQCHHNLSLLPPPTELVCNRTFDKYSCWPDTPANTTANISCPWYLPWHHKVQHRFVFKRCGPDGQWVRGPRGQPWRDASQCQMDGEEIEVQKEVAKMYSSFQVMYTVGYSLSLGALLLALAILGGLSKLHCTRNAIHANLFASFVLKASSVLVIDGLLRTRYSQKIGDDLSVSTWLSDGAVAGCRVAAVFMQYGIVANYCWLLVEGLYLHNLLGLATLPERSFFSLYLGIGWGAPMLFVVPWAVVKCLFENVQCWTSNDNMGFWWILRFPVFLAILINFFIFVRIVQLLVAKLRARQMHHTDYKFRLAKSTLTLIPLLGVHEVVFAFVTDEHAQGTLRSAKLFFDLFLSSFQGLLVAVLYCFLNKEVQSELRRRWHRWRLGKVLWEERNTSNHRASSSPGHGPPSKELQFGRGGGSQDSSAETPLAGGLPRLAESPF
T2 sequence (P43220 24-463): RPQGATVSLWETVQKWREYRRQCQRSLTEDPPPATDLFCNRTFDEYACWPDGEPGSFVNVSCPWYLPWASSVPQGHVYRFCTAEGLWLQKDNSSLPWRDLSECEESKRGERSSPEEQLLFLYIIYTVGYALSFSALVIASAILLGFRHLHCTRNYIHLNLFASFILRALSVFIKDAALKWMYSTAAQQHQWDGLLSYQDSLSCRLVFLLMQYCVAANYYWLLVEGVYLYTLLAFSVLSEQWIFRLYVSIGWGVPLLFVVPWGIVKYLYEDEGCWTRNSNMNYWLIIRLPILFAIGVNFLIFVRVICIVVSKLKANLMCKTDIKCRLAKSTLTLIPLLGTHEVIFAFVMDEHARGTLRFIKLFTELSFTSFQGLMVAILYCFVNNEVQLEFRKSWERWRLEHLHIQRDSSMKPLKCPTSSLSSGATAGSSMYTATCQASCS

Row | Compound | EC50 [1] | EC50 [2] | Ratio GLP-1/Glucagon [2] | EC50 [3] | AUC (% Ctrl) [4]
1 | CCCCCCCCCCCCCCCC(=O)N[C@@H](CCC(=O)NCCCC[C@H](NC(=O)[C@H](CO)NC(=O)[C@H](CC(=O)O)NC(=O)[C@H](CC(C)C)NC(=O)[C@H](Cc1ccc(O)cc1)NC(=O)[C@H](CCCCN)NC(=O)[C@H](CO)NC(=O)[C@H](Cc1ccc(O)cc1)NC(=O)[C@H](CC(=O)O)NC(=O)[C@H](CO)NC(=O)[C@@H](NC(=O)[C@H](Cc1ccccc1)NC(=O)[C@@H](NC(=O)CNC(=O)[C@H](CCC(N)=O)NC(=O)[C@H](CO)NC(=O)[C@@H](N)Cc1c[nH]cn1)[C@@H](C)O)[C@@H](C)O)C(=O)N[C@@H](C)C(=O)N[C@@H](C)C(=O)N[C@@H](Cc1c[nH]cn1)C(=O)N[C@@H](CC(=O)O)C(=O)N[C@@H](Cc1ccccc1)C(=O)N[C@H](C(=O)N[C@@H](CCC(=O)O)C(=O)N[C@@H](Cc1c[nH]c2ccccc12)C(=O)N[C@@H](CC(C)C)C(=O)N[C@@H](CC(C)C)C(=O)N[C@@H](CCCNC(=N)N)C(=O)N[C@@H](C)C(=O)O)C(C)C)C(=O)O [Compound 3, H-HSQGTFTSDYSKYLDS-K(Hexadecanoyl-isoGlu)-AAHDFVEWLLRA-OH] (H-HSQGTFTSDYSKYLDSK([γGlu-Palmitoyl])AAHDFVEWLLRA-OH) | 0.35 nM | 0.91 nM | 2.60 | 1.06 nM | 70 % Ctrl
2 | CCCCCCCCCCCCCCCC(=O)N[C@@H](CCC(=O)NCCCC[C@H](NC(=O)[C@H](CCC(=O)O)NC(=O)[C@H](CC(=O)O)NC(=O)[C@H](CC(C)C)NC(=O)[C@H](Cc1ccc(O)cc1)NC(=O)[C@H](CCCCN)NC(=O)[C@H](CO)NC(=O)[C@H](Cc1ccc(O)cc1)NC(=O)[C@H](CC(=O)O)NC(=O)[C@H](CO)NC(=O)[C@@H](NC(=O)[C@H](Cc1ccccc1)NC(=O)[C@@H](NC(=O)CNC(=O)[C@H](CCC(N)=O)NC(=O)C(C)(C)NC(=O)[C@@H](N)Cc1c[nH]cn1)[C@@H](C)O)[C@@H](C)O)C(=O)N[C@@H](C)C(=O)N[C@@H](C)C(=O)N[C@@H](CCCCN)C(=O)N[C@@H](CC(=O)O)C(=O)N[C@@H](Cc1ccccc1)C(=O)N[C@H](C(=O)N[C@@H](CCC(=O)O)C(=O)N[C@@H](Cc1c[nH]c2ccccc12)C(=O)N[C@@H](CC(C)C)C(=O)N[C@@H](CC(C)C)C(=O)N[C@@H](CO)C(=O)N[C@@H](C)C(N)=O)[C@@H](C)CC)C(=O)O [Compound 4, H-H-Aib-QGTFTSDYSKYLDE-K(Hexadecanoyl-isoGlu)-AAKDFIEWLLSA-NH2] (H-H[Aib]QGTFTSDYSKYLDEK([γGlu-Palmitoyl])AAKDFIEWLLSA-NH2) | 1.56 nM | 0.38 nM | 0.24 | 0.95 nM | 65 % Ctrl

Continued by falling EC50 [1], values first:

Row | EC50 [1] | EC50 [2] | Ratio GLP-1/Glucagon [2] | EC50 [3] | Compound | AUC (% Ctrl) [4]
3 | 0.9 nM | 0.54 nM | 0.60 | 1.47 nM | CCCCCCCCCCCCCCCC(=O)N[C@@H](CCC(=O)NCCCC[C@H](NC(=O)[C@H](CO)NC(=O)[C@H](CC(=O)O)NC(=O)[C@H](CC(C)C)NC(=O)[C@H](Cc1ccc(O)cc1)NC(=O)[C@H](CCCCN)NC(=O)[C@H](CO)NC(=O)[C@H](Cc1ccc(O)cc1)NC(=O)[C@H](CC(=O)O)NC(=O)[C@H](CO)NC(=O)[C@@H](NC(=O)[C@H](Cc1ccccc1)NC(=O)[C@@H](NC(=O)CNC(=O)[C@H](CCC(N)=O)NC(=O)C(C)(C)NC(=O)[C@@H](N)Cc1c[nH]cn1)[C@@H](C)O)[C@@H](C)O)C(=O)N[C@@H](C)C(=O)N[C@@H](C)C(=O)N[C@@H](Cc1c[nH]cn1)C(=O)N[C@@H](CC(=O)O)C(=O)N[C@@H](Cc1ccccc1)C(=O)N[C@H](C(=O)N[C@@H](CCC(=O)O)C(=O)N[C@@H](Cc1c[nH]c2ccccc12)C(=O)N[C@@H](CC(C)C)C(=O)N[C@@H](CC(C)C)C(=O)N[C@@H](CO)C(=O)O)C(C)C)C(=O)O [Compound 1, H-H-Aib-QGTFTSDYSKYLDS-K(Hexadecanoyl-isoGlu)-AAHDFVEWLLS-OH] (H-H[Aib]QGTFTSDYSKYLDSK([γGlu-Palmitoyl])AAHDFVEWLLS-OH) | 66 % Ctrl
4 | 0.46 nM | 0.16 nM | 0.35 | 0.54 nM | CCCCCCCCCCCCCCCC(=O)N[C@@H](CCC(=O)NCCCC[C@H](NC(=O)[C@H](CO)NC(=O)[C@H](CC(=O)O)NC(=O)[C@H](CC(C)C)NC(=O)[C@H](Cc1ccc(O)cc1)NC(=O)[C@H](CCCCN)NC(=O)[C@H](CO)NC(=O)[C@H](Cc1ccc(O)cc1)NC(=O)[C@H](CC(=O)O)NC(=O)[C@H](CO)NC(=O)[C@@H](NC(=O)[C@H](Cc1ccccc1)NC(=O)[C@@H](NC(=O)CNC(=O)[C@H](CCC(N)=O)NC(=O)C(C)(C)NC(=O)[C@@H](N)Cc1c[nH]cn1)[C@@H](C)O)[C@@H](C)O)C(=O)N[C@@H](C)C(=O)N[C@@H](C)C(=O)N[C@@H](Cc1c[nH]cn1)C(=O)N[C@@H](CC(=O)O)C(=O)N[C@@H](Cc1ccccc1)C(=O)N[C@H](C(=O)N[C@@H](CCC(=O)O)C(=O)N[C@@H](Cc1c[nH]c2ccccc12)C(=O)N[C@@H](CC(C)C)C(=O)N[C@@H](CCC(=O)O)C(=O)N[C@@H](CO)C(=O)N[C@@H](C)C(N)=O)C(C)C)C(=O)O [Compound 5, H-H-Aib-QGTFTSDYSKYLDS-K(Hexadecanoyl-isoGlu)-AAHDFVEWLESA-NH2] (H-H[Aib]QGTFTSDYSKYLDSK([γGlu-Palmitoyl])AAHDFVEWLESA-NH2) | 46 % Ctrl
5 | 0.31 nM | 0.77 nM | 2.48 | 1.41 nM | CCCCCCCCCCCCCCCC(=O)N[C@@H](CCC(=O)NCCCC[C@H](NC(=O)[C@H](CO)NC(=O)[C@H](CC(=O)O)NC(=O)[C@H](CC(C)C)NC(=O)[C@H](Cc1ccc(O)cc1)NC(=O)[C@H](CCCCN)NC(=O)[C@H](CO)NC(=O)[C@H](Cc1ccc(O)cc1)NC(=O)[C@H](CC(=O)O)NC(=O)[C@H](CO)NC(=O)[C@@H](NC(=O)[C@H](Cc1ccccc1)NC(=O)[C@@H](NC(=O)CNC(=O)[C@H](CCC(N)=O)NC(=O)[C@H](CO)NC(=O)[C@@H](N)Cc1c[nH]cn1)[C@@H](C)O)[C@@H](C)O)C(=O)N[C@@H](C)C(=O)N[C@@H](C)C(=O)N[C@@H](Cc1c[nH]cn1)C(=O)N[C@@H](CC(=O)O)C(=O)N[C@@H](Cc1ccccc1)C(=O)N[C@H](C(=O)N[C@@H](CCC(=O)O)C(=O)N[C@@H](Cc1c[nH]c2ccccc12)C(=O)N[C@@H](CC(C)C)C(=O)N[C@@H](CC(C)C)C(=O)N[C@@H](CO)C(=O)N[C@@H](C)C(=O)O)C(C)C)C(=O)O [Compound 2, H-HSQGTFTSDYSKYLDS-K(Hexadecanoyl-isoGlu)-AAHDFVEWLLSA-OH] (H-HSQGTFTSDYSKYLDSK([γGlu-Palmitoyl])AAHDFVEWLLSA-OH) | 66 % Ctrl
